Reference: ChEMBL document CHEMBL1201862, “PubChem BioAssay data set” (2004)
The source made the active and inactive calls.

Experiments:
[1] = target: T1, Short transient receptor potential channel 4 (Mus musculus, UniProt Q9QUQ5); assay: mouse TRPC4 channel inhibitors, dose response, cell-based, HEK293 TRPC4/mu-opioid, Fluo-4 calcium (AID 434942); assay type: functional;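 also: potency of inhibitors blocking the TRPC4 calcium response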
T1 sequence (Q9QUQ5 whole entry): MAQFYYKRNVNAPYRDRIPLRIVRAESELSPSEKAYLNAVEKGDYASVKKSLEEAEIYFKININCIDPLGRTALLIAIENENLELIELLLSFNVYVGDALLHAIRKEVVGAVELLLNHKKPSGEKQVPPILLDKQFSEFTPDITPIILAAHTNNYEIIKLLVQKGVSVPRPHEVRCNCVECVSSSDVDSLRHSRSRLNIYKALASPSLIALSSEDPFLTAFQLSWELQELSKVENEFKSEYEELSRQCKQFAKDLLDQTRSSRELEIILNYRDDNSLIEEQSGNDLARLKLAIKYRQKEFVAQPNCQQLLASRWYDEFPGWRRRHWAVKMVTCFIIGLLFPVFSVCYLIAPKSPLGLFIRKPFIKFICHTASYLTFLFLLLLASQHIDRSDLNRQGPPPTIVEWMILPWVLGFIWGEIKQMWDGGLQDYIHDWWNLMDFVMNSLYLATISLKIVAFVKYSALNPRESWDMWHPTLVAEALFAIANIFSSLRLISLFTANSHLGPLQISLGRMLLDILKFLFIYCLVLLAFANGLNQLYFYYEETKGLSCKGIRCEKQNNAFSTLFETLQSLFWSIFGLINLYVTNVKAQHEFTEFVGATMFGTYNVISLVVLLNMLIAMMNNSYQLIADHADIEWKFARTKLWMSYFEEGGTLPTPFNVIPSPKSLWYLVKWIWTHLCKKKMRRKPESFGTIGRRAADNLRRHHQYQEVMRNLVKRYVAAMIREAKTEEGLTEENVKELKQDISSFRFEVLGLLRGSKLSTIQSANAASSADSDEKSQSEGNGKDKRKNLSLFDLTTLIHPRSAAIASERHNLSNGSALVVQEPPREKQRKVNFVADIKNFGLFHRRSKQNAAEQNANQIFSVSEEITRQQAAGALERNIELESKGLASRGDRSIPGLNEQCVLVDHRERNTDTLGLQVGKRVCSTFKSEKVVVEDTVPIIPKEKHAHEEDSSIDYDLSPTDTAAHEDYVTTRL

[2] = target: Nonstructural protein 1 (Influenza A virus, UniProt Q194T2); assay type: functional, Influenza A virus (A/California/07/2009(H1N1))
[3] = test system: BJ; assay: cytotoxicity toward BJ-TERT fibroblasts, dose response, cell-based, RAS-independent, luminescence (AID 1933); assay type: functional; conditions: Homo sapiens
[4] = test system: BJ; assay: cells; assay type: functional, cell-based; conditions: Homo sapiens
[5] = target: Luciferin 4-monooxygenase (Photinus pyralis, UniProt P08659); assay: firefly luciferase enzyme inhibitors, dose response, biochemical, luminescence (AID 1891)
[6] = Luminescence Cell-Based Dose Confirmation HTS to Identify Inhibitors of Platelet Dense Granule Release. [Related pubchem assays: 1663 (Primary HTS), 1678 (Summary of Project)]; assay type: functional
[7] = test system: BJ; assay: cytotoxicity toward BJ-TERT-LT-ST fibroblasts, dose response, cell-based, RAS-independent, luminescence (AID 1935); assay type: functional; conditions: Homo sapiens;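 also: BJ fibroblasts immortalized with TERT plus LT and ST oncogenes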
[8] = cytotoxicity toward DRD oncogenic fibroblasts, dose response, cell-based, non-viral oncogenic, luminescence (AID 1934); assay type: functional; conditions: Homo sapiens
[9] = A cytotoxicity screen of small molecule inhibitors of the PhoP region in Salmonella typhi identified in the primary screen. [Related pubchem assays: 1850, 1864, 1985 ]; assay type: functional
[10] = target: T2, Replicative DNA helicase DnaB (Mycobacterium tuberculosis, UniProt P9WMR3); assay: DnaB intein splicing inhibitors, dose response, biochemical, cell-free fluorescence (AID 449749); assay type: functional
T2 sequence (P9WMR3 whole entry): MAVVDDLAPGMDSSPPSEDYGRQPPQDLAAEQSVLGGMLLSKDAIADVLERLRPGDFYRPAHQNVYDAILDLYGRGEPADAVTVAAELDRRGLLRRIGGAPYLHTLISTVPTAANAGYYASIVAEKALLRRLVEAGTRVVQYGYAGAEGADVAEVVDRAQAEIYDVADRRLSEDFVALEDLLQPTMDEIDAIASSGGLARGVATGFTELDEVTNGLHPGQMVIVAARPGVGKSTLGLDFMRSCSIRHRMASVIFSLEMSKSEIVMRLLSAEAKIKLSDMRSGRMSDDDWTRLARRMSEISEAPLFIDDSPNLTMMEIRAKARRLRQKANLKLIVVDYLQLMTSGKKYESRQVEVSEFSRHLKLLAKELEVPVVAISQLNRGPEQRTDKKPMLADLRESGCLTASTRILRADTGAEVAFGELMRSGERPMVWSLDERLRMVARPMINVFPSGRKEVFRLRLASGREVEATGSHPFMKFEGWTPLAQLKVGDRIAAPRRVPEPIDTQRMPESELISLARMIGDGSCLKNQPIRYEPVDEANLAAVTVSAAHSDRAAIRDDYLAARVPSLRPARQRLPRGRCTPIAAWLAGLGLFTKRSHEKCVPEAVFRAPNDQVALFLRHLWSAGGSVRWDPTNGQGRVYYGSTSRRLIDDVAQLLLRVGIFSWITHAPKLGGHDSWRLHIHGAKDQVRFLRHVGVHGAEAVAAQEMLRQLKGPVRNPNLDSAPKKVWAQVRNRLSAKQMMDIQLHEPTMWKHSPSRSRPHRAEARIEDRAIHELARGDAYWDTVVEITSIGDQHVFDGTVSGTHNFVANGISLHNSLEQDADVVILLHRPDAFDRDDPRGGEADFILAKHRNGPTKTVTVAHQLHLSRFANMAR

[11] = target: T3, Protein RecA (Mycobacterium tuberculosis, UniProt P9WHJ3); assay: Fluorescence Cell-Free Homogeneous Dose Retest to Identify Inhibitors of RecA-Intein Splicing Activity. [Related pubchem assays (depositor defined):AID2097, AID2223, AID489010, AID492950]; assay type: functional
T3 sequence (P9WHJ3 whole entry): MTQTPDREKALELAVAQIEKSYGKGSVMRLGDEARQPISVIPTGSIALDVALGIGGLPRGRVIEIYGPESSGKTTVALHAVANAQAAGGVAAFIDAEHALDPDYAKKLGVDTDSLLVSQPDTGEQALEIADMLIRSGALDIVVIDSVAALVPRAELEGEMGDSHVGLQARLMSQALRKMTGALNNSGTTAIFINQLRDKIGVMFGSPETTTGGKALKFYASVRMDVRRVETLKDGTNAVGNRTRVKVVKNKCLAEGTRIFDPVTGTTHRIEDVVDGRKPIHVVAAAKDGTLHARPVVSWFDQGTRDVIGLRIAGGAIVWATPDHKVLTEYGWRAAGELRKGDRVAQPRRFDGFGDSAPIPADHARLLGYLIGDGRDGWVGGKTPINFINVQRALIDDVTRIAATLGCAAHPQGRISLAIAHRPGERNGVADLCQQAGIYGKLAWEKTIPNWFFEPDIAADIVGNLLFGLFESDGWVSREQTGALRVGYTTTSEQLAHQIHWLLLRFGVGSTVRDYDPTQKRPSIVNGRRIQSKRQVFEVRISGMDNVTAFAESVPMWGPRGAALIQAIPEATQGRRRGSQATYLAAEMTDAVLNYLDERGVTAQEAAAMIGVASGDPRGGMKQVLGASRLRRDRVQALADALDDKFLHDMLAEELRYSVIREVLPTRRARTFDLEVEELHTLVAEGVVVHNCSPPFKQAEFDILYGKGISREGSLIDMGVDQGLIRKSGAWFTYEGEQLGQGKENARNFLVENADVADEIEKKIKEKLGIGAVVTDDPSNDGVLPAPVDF

[12] = target: Glyceraldehyde-3-phosphate dehydrogenase (Homo sapiens, UniProt P04406)
[13] = inhibitors of firefly luciferase expression or activity, dose response, H4 neuroglioma cells, luminescence (AID 1990); assay type: functional, cell-based
[14] = Luminescence Cell-Based Dose Response HTS to Identify Inhibitors of 5'UTR Stem-Loop Driven Prion Protein mRNA Translation in H4 Neuroglioblastoma Cells. [Related pubchem assays: 1827 (Project Summary), 1813 (Primary HTS)]; assay type: functional
[15] = inhibitors of SNCA 5'UTR-driven reporter translation, confirmation, H4 neuroglioma cells, luminescence (AID 1988); assay type: functional, cell-based
[16] = target: T4, Microphthalmia-associated transcription factor (Homo sapiens, UniProt O75030); assay: TRPM1 promoter luciferase signal decrease, dose response, MITF inhibitor project, cell-based, SK-MEL-5, cherry-picked, set 3 (AID 493073); assay type: functional
T4 sequence (O75030 whole entry): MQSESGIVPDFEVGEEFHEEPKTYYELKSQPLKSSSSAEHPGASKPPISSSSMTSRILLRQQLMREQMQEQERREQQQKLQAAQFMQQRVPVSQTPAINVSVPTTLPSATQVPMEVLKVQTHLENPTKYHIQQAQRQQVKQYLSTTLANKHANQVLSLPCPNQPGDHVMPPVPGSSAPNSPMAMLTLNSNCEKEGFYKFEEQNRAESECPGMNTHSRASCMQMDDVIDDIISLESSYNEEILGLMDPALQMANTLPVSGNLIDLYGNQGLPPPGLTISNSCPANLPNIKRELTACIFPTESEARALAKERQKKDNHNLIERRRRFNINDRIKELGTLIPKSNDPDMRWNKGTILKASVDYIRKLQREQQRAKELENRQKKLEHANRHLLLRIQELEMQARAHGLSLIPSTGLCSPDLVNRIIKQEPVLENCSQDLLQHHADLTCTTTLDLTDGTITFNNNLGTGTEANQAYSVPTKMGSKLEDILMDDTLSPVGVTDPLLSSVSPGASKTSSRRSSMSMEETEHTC

Nonstructural protein 1, sequence (Q194T2 whole entry): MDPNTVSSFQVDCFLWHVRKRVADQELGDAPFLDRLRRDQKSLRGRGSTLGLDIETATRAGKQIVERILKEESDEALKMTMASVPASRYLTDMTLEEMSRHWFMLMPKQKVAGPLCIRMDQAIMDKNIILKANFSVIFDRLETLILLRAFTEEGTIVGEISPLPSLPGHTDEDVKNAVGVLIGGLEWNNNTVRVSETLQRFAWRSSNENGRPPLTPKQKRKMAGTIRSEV
Glyceraldehyde-3-phosphate dehydrogenase, sequence (P04406 whole entry): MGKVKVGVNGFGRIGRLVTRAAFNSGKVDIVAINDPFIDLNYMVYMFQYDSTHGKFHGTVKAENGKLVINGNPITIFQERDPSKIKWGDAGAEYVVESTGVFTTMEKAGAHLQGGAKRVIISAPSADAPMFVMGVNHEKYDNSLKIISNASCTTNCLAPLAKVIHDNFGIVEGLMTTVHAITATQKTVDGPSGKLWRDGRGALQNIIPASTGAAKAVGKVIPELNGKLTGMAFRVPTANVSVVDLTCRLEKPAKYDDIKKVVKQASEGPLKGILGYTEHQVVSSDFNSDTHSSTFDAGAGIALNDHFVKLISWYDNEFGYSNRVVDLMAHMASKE
Luciferin 4-monooxygenase, sequence (P08659 whole entry): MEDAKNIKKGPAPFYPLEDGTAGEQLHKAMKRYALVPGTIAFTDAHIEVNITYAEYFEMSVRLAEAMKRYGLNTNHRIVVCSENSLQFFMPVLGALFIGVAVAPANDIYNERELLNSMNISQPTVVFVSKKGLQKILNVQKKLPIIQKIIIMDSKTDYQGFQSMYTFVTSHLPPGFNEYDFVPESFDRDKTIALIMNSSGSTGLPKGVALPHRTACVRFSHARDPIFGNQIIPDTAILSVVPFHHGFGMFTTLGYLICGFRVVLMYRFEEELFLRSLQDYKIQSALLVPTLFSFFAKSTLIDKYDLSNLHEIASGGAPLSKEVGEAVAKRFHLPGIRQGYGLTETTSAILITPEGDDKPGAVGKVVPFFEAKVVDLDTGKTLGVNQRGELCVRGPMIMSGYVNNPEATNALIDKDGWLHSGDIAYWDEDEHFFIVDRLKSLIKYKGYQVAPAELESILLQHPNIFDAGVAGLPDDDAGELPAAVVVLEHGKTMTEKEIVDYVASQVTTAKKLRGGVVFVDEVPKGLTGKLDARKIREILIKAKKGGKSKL

In the case of `CN1CCN(Cc2c[nH]nc2-c2ccc(F)cc2F)[C@@H](c2ccccc2)C1`, the EC50 [1] is reported as 4.22 µM (active).
In the case of `CCC1CCCCN1c1nc(-c2cccc(OC)c2O)nc2ccccc12` (stereo unspecified), the IC50 [2] is reported as > 100 µM (active).
For `OCCNc1nc2ccccc2n1CCN1CCCCC1`, the EC50 [1] was 3.35 µM (active).
In the case of `Cc1ccsc1C(=O)Nc1ccc(OCc2ccccc2)cc1`, the EC50 [3] is reported as > 150 µM (not active), the EC50 [4] is reported as 34.4 µM (active) and the EC50 [5] is reported as 1.7 µM (active). The EC50 [6] was 5.83 µM (active), the EC50 [7] was > 150 µM (not active) and the EC50 [8] was > 150 µM (inconclusive).
In the case of `O=C1C(=C(c2ccccc2)c2ccccc2)Nc2ccccc21`, the IC50 [2] is reported as 30.3 µM (active).
In the case of `Cc1ccc(SCc2n[nH]c3c2C(c2cccnc2)C(C#N)=C(N)O3)cc1` (stereo unspecified), the EC50 [9] is reported as > 50 µM (active).
With `CC1CC1C(=O)Nc1nc2ccc(S(C)(=O)=O)cc2s1` (stereo unspecified) the EC50 [9] was > 50 µM (active).
For `O=C(CCl)N(Cc1cccc([N+](=O)[O-])c1)c1cccc(Cl)c1`, the EC50 [3] was 0.25 µM (active), the EC50 [4] was 1.41 µM (inconclusive) and the EC50 [7] was 4.87 µM (inconclusive). The EC50 [8] was 1.22 µM (active), the AC50 [10] was 5.28 µM (active) and the EC50 [11] was 0.512 µM (active).
In the case of `COc1cccc(N2C(=O)C(Cl)=C(N3CCN(C)CC3)C2=O)c1`, the IC50 [12] is reported as > 50 µM (inconclusive).
For `COC(=O)c1ccc(Nc2cc(C)nc3ccccc23)cc1`, the EC50 [13] was 11.6 µM (active), the EC50 [14] was 16.4 µM (active) and the EC50 [15] was 7.97 µM (active). The EC50 [1] was 3.76 µM (active).
For `Cc1noc(C)c1S(=O)(=O)N1CCC(Cc2ccccc2)CC1`, the EC50 [9] was > 50 µM (active).
In the case of `O=C1C(Cl)=C(N2CCOCC2)C(=O)N1c1ccc(C(F)(F)F)cc1`, the IC50 [12] is reported as > 50 µM (inconclusive).
With `Cc1ccc(N2C(=O)C(Cl)=C(N3CCN(C)CC3)C2=O)cc1` the IC50 [12] was > 50 µM (inconclusive).
With `Fc1cccc(Cl)c1CSc1ccc(-c2ccco2)nn1` the EC50 [9] was > 50 µM (active).
For `CCCCCN1C(=O)/C(=C/c2c(N3CCc4ccccc4C3)nc3ccccn3c2=O)SC1=S`, the EC50 [9] was > 50 µM (active).
With `c1csc(CNc2nc(-c3cccs3)nc3ccccc23)c1` the EC50 [1] was 4.73 µM (active).
With `O=[N+]([O-])c1ccc(/C=N/N=C/c2ccc([N+](=O)[O-])o2)o1` the AC50 [16] was 9.36 µM (active).
In the case of `O=[N+]([O-])c1cccc(/C=N/c2cc3c(cc2Br)OCCO3)c1`, the IC50 [2] is reported as > 100 µM (active).
